Test results published in ChEMBL document CHEMBL1138742, “Potent and orally bioavailable non-peptide antagonists at the human bradykinin B(1) receptor based on a 2-alkylamino-5-sulfamoylbenzamide core” (J Med Chem, 2004).

The compounds below were run against T1, B1 bradykinin receptor (Homo sapiens, UniProt P46663) (assay: Binding affinity for Bradykinin receptor B1 expressed in HEK293 cells).
T1 sequence (P46663 whole entry): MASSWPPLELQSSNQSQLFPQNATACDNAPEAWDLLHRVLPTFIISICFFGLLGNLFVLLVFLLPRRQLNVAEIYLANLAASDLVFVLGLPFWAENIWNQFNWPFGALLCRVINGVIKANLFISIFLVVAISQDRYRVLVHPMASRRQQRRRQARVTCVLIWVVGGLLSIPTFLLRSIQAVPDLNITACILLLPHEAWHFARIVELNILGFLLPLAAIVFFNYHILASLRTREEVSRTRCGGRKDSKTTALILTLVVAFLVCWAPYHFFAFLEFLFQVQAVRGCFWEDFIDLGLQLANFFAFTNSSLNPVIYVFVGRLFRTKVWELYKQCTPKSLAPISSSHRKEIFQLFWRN
Format: cell-based
With `CN(C)CCCN(CCCN(C)C)C(=O)CCNS(=O)(=O)c1ccc(NCC(c2ccccc2)c2ccccc2)c(Cl)c1` the Ki was > 1000 nM. With `CN(C)CCCN(CCCN(C)C)C(=O)CCNS(=O)(=O)c1ccc(NCC(c2ccccc2)c2ccccc2)c([N+](=O)[O-])c1` the Ki was 140 nM. `CN(C)CCCN(CCCN(C)C)S(=O)(=O)c1ccc(NCC(c2ccccc2)c2ccccc2)c([N+](=O)[O-])c1` was tested, and the Ki was 230 nM. Work on `CC(C)N1CCN(C(=O)C2CCN(S(=O)(=O)c3ccc(NCC(c4ccccc4)c4ccccc4)c(C(=O)N4CCOCC4)c3)CC2)CC1` yielded a Ki of 10 nM. Compound `CN(C)CCCN(CCCN(C)C)C(=O)C1CCN(S(=O)(=O)c2ccc(NCC(c3ccccc3)c3ccccc3)c(C(=O)N3CCOCC3)c2)CC1` has a Ki of 1 nM. With `CN(C)CCCN(CCCN(C)C)S(=O)(=O)c1ccc(NC(c2ccccc2)c2ccccc2)c([N+](=O)[O-])c1` the Ki was 3000 nM. In the case of `CN(C)CCCN(CCCN(C)C)C(=O)CCNS(=O)(=O)c1ccc(NCC(c2ccccc2)c2ccccc2)c(C(=O)N2CCOCC2)c1`, the Ki is reported as 10 nM. With `CN1CCN(C(=O)C2CCN(S(=O)(=O)c3ccc(NCC(c4ccccc4)c4ccccc4)c(C(=O)N4CCOCC4)c3)CC2)CC1` the Ki was 10 nM. For `CC(=O)c1cc(S(=O)(=O)NCCC(=O)N(CCCN(C)C)CCCN(C)C)ccc1NCC(c1ccccc1)c1ccccc1`, the Ki was 130 nM. For `CN(C)CCCN(CCCN(C)C)C(=O)C1CCN(S(=O)(=O)c2ccc(NCC(c3ccccc3)c3ccccc3)c([N+](=O)[O-])c2)CC1`, the Ki was 10 nM. `CN(C)CCCN(CCCN(C)C)S(=O)(=O)c1ccc(NC(Cc2ccccc2)Cc2ccccc2)c([N+](=O)[O-])c1` was tested, and the Ki was 250 nM.

What follows are compounds tested against T2, B2 bradykinin receptor (Homo sapiens, UniProt P30411) (assay: Binding affinity for Bradykinin receptor B2 expressed in COS7 cells).
T2 sequence (P30411 whole entry): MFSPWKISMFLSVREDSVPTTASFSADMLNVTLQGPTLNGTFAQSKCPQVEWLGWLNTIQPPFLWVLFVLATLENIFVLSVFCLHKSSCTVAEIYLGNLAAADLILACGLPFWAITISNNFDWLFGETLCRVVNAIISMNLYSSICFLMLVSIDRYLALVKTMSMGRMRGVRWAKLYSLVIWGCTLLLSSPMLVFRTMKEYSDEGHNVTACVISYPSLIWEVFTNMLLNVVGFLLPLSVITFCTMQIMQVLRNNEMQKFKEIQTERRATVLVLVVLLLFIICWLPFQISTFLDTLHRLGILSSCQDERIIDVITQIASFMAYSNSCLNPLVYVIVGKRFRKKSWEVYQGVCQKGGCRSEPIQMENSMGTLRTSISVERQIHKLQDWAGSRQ
Format: cell-based, COS-7
Compound `CN(C)CCCN(CCCN(C)C)S(=O)(=O)c1ccc(NC(c2ccccc2)c2ccccc2)c([N+](=O)[O-])c1` has a Ki of 1400 nM.

What follows are compounds tested against T1, B1 bradykinin receptor (assay: Inhibition of Bradykinin receptor B1 expressed in HEK293 cells).
Format: cell-based
For `CN(C)CCCN(CCCN(C)C)S(=O)(=O)c1ccc(NC(c2ccccc2)c2ccccc2)c([N+](=O)[O-])c1`, the IC50 was 6200 nM.
